Measurements reported in patent US11174462B2, “Microfluidic model of the blood brain barrier” (EMULATE, Inc., priority 2015, dated 2021).
Entries after “also recorded” stand apart in the source; their conditions may differ.

How the values were obtained:
[1] = system: iBMEC barrier; assay: TEER measurement of iBMEC barrier function on TEER chips under flow; assay type: cell-based, human; details: exposure of chips under flow to TNFa, FIG. 14A
Procedure: Cells were plated on tall channel PDMS chips equipped with incorporated gold electrodes on each channel (see FIG. 13A). Post seeding of BMECs, transendothelial electrical resistance was measured by connecting the electrodes to an EVOM2 voltohmmeter (see FIG. 13B). […] The “damaged” chip was a failure due to the TEER-Chips being a prototype.
Higher TEER values generally indicate a tighter barrier, which is typically desirable for a blood-brain barrier.

[2] = system: BMECs seeded on a microfluidic device; assay: Paracellular permeability assay with Dextran-FITC on chip; assay type: cell-based, human; details: TNFa exposure, FIG. 14B
Procedure: Albumin or Dextran conjugated to a fluorescent probe (e.g., FITC or TRITC) are frequently used to monitor changes in leakage, and thus barrier function. In this case, Dextran-FITC, a green fluorescent molecule of 4 KDa, or sodium fluorescein (a 0.3 KDa molecule), was added to the bottom (“blood side”) channel. Paracellular permeability was calculated by measuring the permeability of the fluorescent molecule on the Top (“brain side”) channel. […] FIG. 14B involves TNF-alpha exposure, but the readout is membrane permeability as measured by Dextran-FITC.

[3] = system: cell monolayers with tight junctions; details: passive paracellular diffusion only; cited from earlier work
[4] = system: neurons seeded in chip; assay type: cell-based, human

With TNFa the “effect on iBMEC barrier function (TEER)” value [1] was “weakening of barrier function; also recorded: decrease in barrier function and TEER” and the “effect on permeability to dextran-FITC through the semi-porous membrane” value [2] was “increase in permeability”.

In the case of Lucifer Yellow, the “permeability across cell monolayers (in words)” value [3] is listed as “low permeability”.

With NC1=N[C@H](O)[C@H]2[C@H]3O[C@]4(O)O[C@@H]([C@@H](O)[C@@]2(N1)[C@@H]4O)[C@]3(O)CO [TTX, tetrodotoxin] the “effect on neuronal calcium flux activity” value [4] was “ablates this activity”.
